The results in this text go back to ChEMBL document CHEMBL1130015, “Cardioselective antiischemic ATP-sensitive potassium channel (KATP) openers. 5. Identification of 4-(N-aryl)-substituted benzopyran derivatives with high selectivity” (J Med Chem, 1997).

The species entered for series [1] is Rattus norvegicus. Kind of series: Vasorelaxant potency determined by measurement of IC50 value for relaxation of rat aorta precontracted with methoxamine. The class given is functional.
The species named for series [2] is Rattus norvegicus. The series is described as follows: Antiischemic potency is determined by EC25 value for increase in time to the onset of contracture in globally ischemic isolated perfused rat hearts. It is filed as functional.
For series [3], the species on record is Rattus norvegicus. Kind of series: Ratio of the EC25 value for time to contracture and IC50 value for vasorelaxant potency indicates selectivity in vitro for the ischemic myocardium. It is filed as functional.
Series [4] is filed under the species Rattus norvegicus. The series is described as follows: Percent increase in cardio protective activity at concentration of 10 uM. The class given is functional, Heart.
Series [5] can be described thus: Apparent terminal elimination half life in rats. The class given is ADME, organism-based. The conditions noted are these: rat, in vivo.
Series [6] can be described thus: Oral bioavailability in rats was determined in vivo. It is filed as ADME, organism-based. The conditions noted are these: rat, read-out: Bioavailabiility.
Series [7] in a line: Pharmacokinetic parameter Tmax following oral administration of 30 umol/kg. The class given is ADME, organism-based. The conditions noted are these: in vivo.
The nature of series [8]: Maximum plasma concentration following oral administration of 30 umol/kg. It is filed as ADME, organism-based. More on the design: dose 30 umol/kg, route oral.

With `CCOC(=O)CN(c1ccc(Cl)cc1)[C@H]1c2cc(C#N)ccc2OC(C)(C)[C@@H]1O`, the half-maximal inhibitory concentration (IC50) in the series listed under Rattus norvegicus [1] was over 30 µM. This compound also came in with an EC25 in the series filed under Rattus norvegicus [2] of 6.5 µM. Moreover, the Ratio in the series filed under Rattus norvegicus [3] is under 0.22.

The compound `CC1(C)Oc2ccc(C#N)cc2[C@H](N(CCS(C)(=O)=O)c2ccccc2)[C@H]1O` came in with a 50% inhibitory concentration (IC50) in the series filed under Rattus norvegicus [1] of 27 µM. In the series filed under Rattus norvegicus [4], this compound displayed an Increase of 0%.

Compound `CCOC(=O)CCCN(c1ccccc1)[C@H]1c2cc(C#N)ccc2OC(C)(C)[C@@H]1O` displayed an IC50 in the series listed under Rattus norvegicus [1] of over 30 µM. In the series listed under Rattus norvegicus [2], this compound showed a 25% effect concentration (EC25) of 5.7 µM.

On to `COCCN(c1ccccc1)[C@H]1c2cc(C#N)ccc2OC(C)(C)[C@@H]1O`, for which, in the series listed under Rattus norvegicus [1], the IC50 was over 30 µM. This compound came in with an Increase in the series listed under Rattus norvegicus [4] of 15%.

`CC1(C)Oc2ccc(C#N)cc2[C@H](N(Cc2ccco2)c2ccccc2)[C@H]1O` gave an IC50 in the series filed under Rattus norvegicus [1] of 12 µM. Further, the EC25 in the series listed under Rattus norvegicus [2] came out at 3.2 µM. Besides, the Ratio in the series listed under Rattus norvegicus [3] came out at 0.27.

Turning to `CC1(C)Oc2ccc(C#N)cc2[C@H](N(Cc2ncc[nH]2)c2ccc(F)cc2)[C@H]1O`, the 50% inhibitory concentration (IC50) in the series listed under Rattus norvegicus [1] was over 30 µM. For the same compound, the EC25 in the series listed under Rattus norvegicus [2] is 3.3 µM. In addition, the Ratio in the series listed under Rattus norvegicus [3] is reported as 0.11.

With `CCOC(=O)NN(c1ccccc1)[C@H]1c2cc(C#N)ccc2OC(C)(C)[C@@H]1O`, in the series filed under Rattus norvegicus [1], the IC50 came to 2.2 µM. Also, in the series listed under Rattus norvegicus [2], the EC25 is 4.3 µM. Moreover, the Ratio in the series filed under Rattus norvegicus [3] amounted to 1.95.

Turning to `Cc1noc(CN(c2ccccc2)[C@H]2c3cc(C#N)ccc3OC(C)(C)[C@@H]2O)n1`, the IC50 in the series filed under Rattus norvegicus [1] was over 30 µM. The compound also yielded an EC25 in the series filed under Rattus norvegicus [2] of 10 µM. Also, in the series listed under Rattus norvegicus [3], the Ratio was under 0.33.

Regarding `Cc1cc(CN(c2ccccc2)[C@H]2c3cc(C#N)ccc3OC(C)(C)[C@@H]2O)on1`, the IC50 in the series listed under Rattus norvegicus [1] was over 30 µM. Further, in the series listed under Rattus norvegicus [4], the Increase came to 11%.

In the series listed under Rattus norvegicus [1], `CC1(C)Oc2ccc(C#N)cc2[C@H](N(CC#N)c2ccccc2)[C@H]1O` gave an IC50 of 59 µM. The same compound gave an Increase in the series filed under Rattus norvegicus [4] of 8%.

`CC1(C)Oc2ccc(C#N)cc2[C@H](Nc2ccccc2)[C@H]1O`: in the series filed under Rattus norvegicus [2], the EC25 came out at 3.9 µM. For the same compound, the Ratio in the series filed under Rattus norvegicus [3] is 3.9.

`CCOC(=O)CN(c1nc(C)cs1)[C@H]1c2cc(C#N)ccc2OC(C)(C)[C@@H]1O` showed an IC50 in the series listed under Rattus norvegicus [1] of 84 µM. For the same compound, the concentration for an effect of 25% (EC25) in the series listed under Rattus norvegicus [2] worked out at 7.8 µM. Moreover, the Ratio in the series filed under Rattus norvegicus [3] is on record as under 0.09.

For `CCOC(=O)C(=O)N(c1ccc(F)cc1)[C@H]1c2cc(C#N)ccc2OC(C)(C)[C@@H]1O`, the IC50 in the series filed under Rattus norvegicus [1] was determined as 43 µM. Also, the Increase in the series filed under Rattus norvegicus [4] is recorded as 0%.

For the compound `CCOC(=O)CN(c1ccccc1)[C@@H]1c2cc(C#N)ccc2OC(C)(C)[C@H]1O` [listing 1 of 2 here], the IC50 in the series listed under Rattus norvegicus [1] was over 30 µM. This compound also came in with an Increase in the series filed under Rattus norvegicus [4] of 5%.

With `CC1(C)Oc2ccc(C#N)cc2[C@@H](N(Cc2ncc[nH]2)c2ccc(Cl)cc2)[C@@H]1O`, the IC50 in the series filed under Rattus norvegicus [1] was over 30 µM. The same compound displayed an Increase in the series listed under Rattus norvegicus [4] of 14%.

Consider `CCOC(=O)CN(c1ccccc1)[C@@H]1c2cc(C#N)ccc2OC(C)(C)[C@H]1O` [listing 2 of 2 here], for which the IC50 in the series filed under Rattus norvegicus [1] was over 30 µM. Further, the EC25 in the series listed under Rattus norvegicus [2] is 4.7 µM. In addition, the Ratio in the series listed under Rattus norvegicus [3] is on record as under 0.17.

In the series listed under Rattus norvegicus [1], `CC1(C)Oc2ccc(C#N)cc2[C@H](N(Cc2ncco2)c2ccccc2)[C@H]1O` gave an IC50 of over 30 µM. In the series listed under Rattus norvegicus [2], the EC25 is 5.3 µM. In the series filed under Rattus norvegicus [3], the Ratio was under 0.18.

In the series listed under Rattus norvegicus [1], `CC1(C)Oc2ccc(C#N)cc2[C@H](N(CC(=O)O)c2ccccc2)[C@H]1O` returned an IC50 of over 100 µM. This compound came in with an Increase in the series filed under Rattus norvegicus [4] of 0%.

For `CCOC(=O)CN(c1ccc(F)cc1)[C@H]1c2cc(C#N)ccc2OC(C)(C)[C@@H]1O`, in the series filed under Rattus norvegicus [1], the IC50 is over 30 µM. Moreover, the EC25 in the series listed under Rattus norvegicus [2] was found to be 3.8 µM. For the same compound, the Ratio in the series listed under Rattus norvegicus [3] is under 0.017.

For the compound `CCCCOC(=O)CN(c1ccccc1)[C@H]1c2cc(C#N)ccc2OC(C)(C)[C@@H]1O`, the IC50 in the series filed under Rattus norvegicus [1] worked out at 27 µM. Also, the Increase in the series listed under Rattus norvegicus [4] is given as 8%.

On to `CCOC(=O)CCN(c1ccccc1)[C@H]1c2cc(C#N)ccc2OC(C)(C)[C@@H]1O`, for which half-maximal inhibition in the series listed under Rattus norvegicus [1] (IC50) required 54 µM. Besides, the Increase in the series listed under Rattus norvegicus [4] was found to be 26%.

In turn, `CCOC(=O)CN(c1nc2ccccc2o1)[C@H]1c2cc(C#N)ccc2OC(C)(C)[C@@H]1O` had an IC50 in the series listed under Rattus norvegicus [1] of over 30 µM. The compound further showed an Increase in the series listed under Rattus norvegicus [4] of 0%.

Regarding `COC(=O)c1cc2ccccc2n1[C@@H]1c2cc(C#N)ccc2OC(C)(C)[C@H]1O`, the EC25 in the series listed under Rattus norvegicus [2] worked out at 8.1 µM. Moreover, the Ratio in the series filed under Rattus norvegicus [3] stood at 0.25.

In the series listed under Rattus norvegicus [1], `CCOC(=O)CN(c1ccccc1)[C@H]1c2cc(C#N)ccc2OC(C)(C)[C@@H]1O` came in with an IC50 of over 30 µM. In the series filed under Rattus norvegicus [2], the EC25 stood at 2.2 µM. For the same compound, in the series listed under Rattus norvegicus [4], the Increase is 38%. The Ratio in the series listed under Rattus norvegicus [3] is under 0.07.

With `CC(=O)NCCN(c1ccccc1)[C@H]1c2cc(C#N)ccc2OC(C)(C)[C@@H]1O`, the IC50 in the series listed under Rattus norvegicus [1] was over 30 µM. The same compound yielded an Increase in the series filed under Rattus norvegicus [4] of 5%.

`CCNC(=O)CN(c1ccccc1)[C@H]1c2cc(C#N)ccc2OC(C)(C)[C@@H]1O` showed an IC50 in the series filed under Rattus norvegicus [1] of over 30 µM. The compound further had an Increase in the series filed under Rattus norvegicus [4] of 21%.

Consider `CC1(C)Oc2ccc(C#N)cc2[C@H](N(Cc2ncc[nH]2)c2ccccc2)[C@H]1O`, for which the IC50 in the series listed under Rattus norvegicus [1] was over 30 µM. The compound also registered a concentration for an effect of 25% (EC25) in the series listed under Rattus norvegicus [2] of 4.3 µM. For the same compound, the Ratio in the series listed under Rattus norvegicus [3] is on record as under 0.14.

In the series listed under Rattus norvegicus [1], `CCOP(=O)(CN(c1ccc(F)cc1)[C@H]1c2cc(C#N)ccc2OC(C)(C)[C@@H]1O)OCC` gave an IC50 of 47 µM. In the series filed under Rattus norvegicus [2], this compound had an EC25 of 4.9 µM. Moreover, in the series listed under Rattus norvegicus [3], the Ratio was determined as 0.104.

In the case of `CC1(C)Oc2ccc(C#N)cc2[C@@H](/N=C(\NC#N)Nc2ccc(Cl)cc2)[C@@H]1O`, in the series filed under Rattus norvegicus [2], the 25% effect concentration (EC25) is 2.5 µM. For the same compound, the Ratio in the series filed under Rattus norvegicus [3] stood at 1.4.

Regarding `CC1(C)Oc2ccc(C#N)cc2[C@H](N(Cc2ncc[nH]2)c2ccc(Cl)cc2)[C@H]1O` [BMS-191095], in series [5], the half-life was 180 min. In the series filed under Rattus norvegicus [1], this compound yielded an IC50 of over 30 µM. Also, in the series listed under Rattus norvegicus [2], the 25% effect concentration (EC25) turned out to be 1.4 µM. Further, the bioavailability in series [6] was determined as 47%. Moreover, the Ratio in the series filed under Rattus norvegicus [3] was under 0.05. Also, the Tmax in series [7] came out at 1.9 h. The same compound yielded a Cmax in series [8] of 1300 nM.

In the case of `CC1(C)Oc2ccc(C#N)cc2[C@@H](N2CCCC2=O)[C@@H]1O` [CROMAKALIM], the EC25 in the series filed under Rattus norvegicus [2] stood at 8.9 µM. Also, the Ratio in the series filed under Rattus norvegicus [3] was 278.
